Tested on: pZeoLacZ plasmid DNA
Description: Each dialysis device was rotated on a 12 inch motorized wheel overnight (approximately 20 hours). The DNA-containing chamber was then withdrawn with repeated pipetting to mix the sample, and it was placed in a 250 μl volume cuvette. The absorbance at 400 nm was used to monitor turbidity against the buffer background.

NCCCNCCCCNCCCN [spermine]
total spermine concentration sufficient to condense the DNA (in the presence of the amount of N-C12-DOPE used): 0.85 mM
spermine concentration sufficient to condense the plasmid DNA (initial 250 μl emulsion, without N-C12-DOPE): approximately 0.6 mM
